Results as given in patent publication US20260021167A1, “COMPOSITIONS AND METHODS FOR TREATING OR PREVENTING NEURODEGENERATIVE DISEASES” (Delaware State University, priority 2022, published 2026).

How the values were obtained:
N27 dopaminergic cells = experiment: Screening of SENP-1 inhibitors (LDH, MTT, ROS, Thioflavin-T) in PFF-induced PD model in vitro; assay type: cell-based, rat; settings: N27 dopaminergic cells after exposure to PFF for 24 hrs
Description: Cell Viability Assay. The MTT assay is a colorimetric assay that is based on the conversion of water-soluble MTT (3-(4,5-dimethylthiazol-2-yl)-2,5-diphenyltetrazolium bromide) into formazan crystal by mitochondrial dehydrogenase enzymes, soluble in 100% DMSO. The resulting solution is purple in color, and the color intensity is proportional to the viable cells for each well in a 96-well plate. A variety of SENP-1 inhibitors, such as SUMO-2 aldehyde, Momordin lc, streptonigrin, hinokiflavone, oleanolic acid and siRNA of SENP-1, were treated in N27 cells after PFF (1 μg/ml) exposure for 24 h. After adding 5 mM MTT dye to cells, the color intensity in MTT assays was measured using a spectrophotometer (SpectraMax M5e, Molecular devices, Dover, USA), at 570 nm with a reference wavelength of 630 nm. The cells were incubated with the MTT reagent (ab211091, Abcam) at 37° C. for 3 h, followed by solubilizing the formazan crystals in solution.
Cytotoxicity Assay. The lactate dehydrogenase (LDH) is a cytosolic enzyme that is released into the media during cellular stress and increased levels of cytotoxicity. The cytotoxicity assay was measured using reagents from the Pierce LDH Cytotoxicity Assay Kit (88954, Thermo). For the assay, 50 μL of media from each well after PFF exposure, followed by SENP-1 treatment, was put into wells of a new 96-well plate. The LDH reagents were prepared according to the protocol provided, and 50 μL of the LDH reagent was mixed into each well. The total 100 μL of media containing LDH and its reagent were incubated at 37° C. for 30 min, followed by the application of a stop solution. The mixture was analyzed using a spectrophotometer (SpectraMax M5e, Molecular devices) at 490 nm with a reference wavelength of 680 nm.
ROS Levels and Thioflavin-T Assessment. The reactive oxygen species (ROS) is a released byproduct during oxidative stress. On the other hand, thioflavin-T is an assay used to understand the level of protein aggregation that can be detrimental to cell survival. In order to assess the level of oxidative stress, all the SENP-1 inhibitors treated cells were incubated in media containing 5 μg/mL of the ROS reagent CellROX deep red reagent (C10422, Thermo Fisher Scientific) and 25 μg/mL of thioflavin-T reagent (CAS: 2390-54-7, Acros Organics) at 37° C. for 30 min. The cells were then washed 3 times with warm phosphate-buffered saline (PBS) without Ca^2+ or Mg^2+ (137 mM NaCl, 2.7 mM KCl, 4.3 mM Na2HPO4, and 1.47 mM KH2PO4), and several images from each well were collected using EVOS FL Cell Imaging Systems (Invitrogen, MA, USA). […] The intensity of red fluorescence corresponding to ROS levels and green labels corresponding to protein aggregation was analyzed by blinded raters using ImageJ. […]

PFF-injected old mice = experiment: Grooming in PFF-injected mice; assay type: in vivo, mouse; settings: 10 and/or 50 mg/kg oral, vs PFF only
Method: A mouse model of Parkinson's disease is C57BL/6 male or female mice (50% each) injected with 5 μg of mouse PFF at 12 months old, followed by a treatment below for 6-7 weeks: • 1) without PFF injection, followed by vehicle (control, n=7); • 2) PFF injection, followed by vehicle (PFF only: control, n=8); • 3) PFF injection, followed by daily 10 mg/kg Momordin gavage (n=7-8); • 4) PFF injection, followed by daily 50 mg/kg Momordin gavage (n=7-8).
Grooming. Individual pictures of each animal were taken over 3 days and analyzed for grooming capabilities. Additional data were collected over 6 weeks during the gavaging period for PFF-injected mice to monitor whether the mice in all groups performed grooming activities uniformly. The points were averaged at the end of the assessment after the mice were euthanized. The coat conditions of each animal were assessed to correlate motivation and activity levels for each animal. […] The grooming pictures were also analyzed by blinded raters and given a point out of 10, with 1 being a poor/dull coat and 10 being a shiny and healthy-looking coat.

CC1(C)CC[C@]2(C(=O)O)CC[C@]3(C)C(=CC[C@@H]4[C@@]5(C)CC[C@H](O[C@@H]6O[C@H](C(=O)O)[C@@H](O)[C@H](O[C@@H]7OC[C@@H](O)[C@H](O)[C@H]7O)[C@H]6O)C(C)(C)[C@@H]5CC[C@]43C)[C@@H]2C1 [Momordin lc]
efficacy in preventing protein aggregation-mediated damage and reversing PFF-induced damage (LDH, MTT, ROS, Thioflavin-T assays) (N27 dopaminergic cells): clearly efficacious | grooming (PFF-injected old mice): improves
